Data: patent US9951033B2, “Tertiary amines for use in the treatment of cardiac disorders” (Universitetet I Oslo, priority 2012, dated 2018)
Read-outs that look alike come from different tables or passages of the source.

Columns and labels:
[1] = biological target: GST-AKAP18δ: PLB-biotin interaction (Rattus norvegicus (Rat), UniProt Q6JP77); experiment: AKAP18δ-PLB AlphaScreen assay; format: binding
Experimental: Stable and optimal assay conditions were determined by cross-titrating GST-AKAP18 δ and biotinylated PLB using 10 μg/ml glutathione acceptor beads and 10 μg/ml streptavidin donor beads in an AlphaScreen assay. The excitation wavelength was 680 nm, with the emission wavelength being 520-560 nm. Signal intensity in each well was registered and the optimal concentration to use was chosen to be the concentration prior to the peak of the signal.
Concentrations to give a reliable signal were determined to be between 2 and 16 nM for AKAP18δ-GST and 4 and 20 nM PLB-biotin for relevant preparations of protein, for example 4 nM and 20 nM, respectively.

[2] = test system: metabolically active cells; experiment: Cell viability luminescence assay; format: cell-based
Experimental: Compound toxicity was measured in a luminescence assay that gives a signal proportional to the amount of metabolically active cells in the sample; the assay was performed as described by the supplier. All synthesized compounds were tested in the viability assay, and viability was registered at 24 hours and 72 hours.

[3] = test system: PLB-Ser16 phosphorylation; experiment: PLB-Ser16 phosphorylation in rat neonatal cardiomyocytes after isoproterenol stimulation (western blot); format: cell-based; settings: 24 hours prior to isoproterenol 100 nM, 5 minutes
Experimental: Based on data from studies in cardiomyocytes assay using a peptide that blocks AKAP18δ-PLB interaction, it was expected that effective compounds would also cause disruption of the AKAP18δ-PLB complex and decrease PLB-Ser^16 phosphorylation (Lygren et al. in EMBO Reports, volume 8, issue 11, page 1061-1067 (2007). A small selection of hits from the derivatized compounds were tested in this cell-based assay, performed as described in Lygren et al.
Briefly, compounds were added to primary cultures of rat neonatal cardiomyocytes were added compounds about 24 hour prior stimulation with isoproterenol, and amount of phosphorylated Ser^16-PLB was analyzed by western blotting using a pSer^16-PLB phosphospecific antibody. Actin was used as a loading control.
Rat neonatal cardiomyocytes treated with compounds 24 hours prior stimulation with isoproterenol (100 nM, 5 minutes).
Following on Example 53, two compounds, 2g and 3d (FIGS. 9A,B and 9C, respectively), were tested in more detail for their ability to interfere with phosphorylation of phospholamban after stimulation of neonatal (FIGS. 9A and 9C) or adult (FIG. 9B) primary cultures of cardiomyocytes.

SERCA2 = SERCA2 (Rattus norvegicus (Rat), UniProt P11507); experiment: Patch clamp based SERCA2 activity in adult rat cardiomyocytes; format: cell-based; settings: mesylate salt, 10 uM, in the presence of cAMP
Experimental: Adult rat cardiomyocytes were isolated and perfused with external solution (NaCl 125, CsCl 20, D-glucose 5, MgCl2 1, CaCl2 1.8, Hepes 10, 4-aminopyridine 5, probenecid 2, pH 7.4 by NaCH). Cell dialysis was achieved by 1-2 MΩ patch pipettes, filled with (in mM): CsCl 115, TEACl 20, Hepes 10, MgATP 5, Na2-Phosphocreatinine 5, EGTA 0.04, cAMP 0.005, adjusted to pH=7.2 with CsOH. Compound 2g (mesylate salt dissolved in water) was included at a concentration of 10 uM. Whole-cell Ca fluorescence measured from voltage-clamped cells was performed with Cairn Research Optoscan Monochromator (Excitation 488 nm, emission 515 nm long pass) (Cain Research Ltd., Faverham, UK). By applying 100 ms square voltage step from −45 to 0 mV at 0.125 Hz by an Axociamp 2B amplifier (Axon Instruments, Foster City, Calif., USA), basal Ca transients were recorded, and tau values were obtained by monoexponential fitting of the Ca^2+ extrusion phase from regular transients (τ) and caffeine transients (τcaff) after rapid applications of 10 mM caffeine. SERCA2 rate constant were calculated as: k_SERCA=1/τ−1/τcaff.

[4] = Aqueous solubility of tribenzylamine and salts quantified by HPLC (AUC); format: physicochemical; settings: free base in water
Experimental: Tribenzylamine and the corresponding salts were dissolved in water and the solubility was quantified (area under curve (AUC)) by HPLC

[5] = screening of compound library, read-out: EC50
[6] = average ± standard deviation (n = 3) or ± half range (n = 2), read-out: EC50 (n)
[7] = average ± standard deviation (n = 3) or ± half range (n = 2), read-out: EC50 in μM (n)

Chain of GST-AKAP18δ: PLB-biotin interaction (Q6JP77 whole entry): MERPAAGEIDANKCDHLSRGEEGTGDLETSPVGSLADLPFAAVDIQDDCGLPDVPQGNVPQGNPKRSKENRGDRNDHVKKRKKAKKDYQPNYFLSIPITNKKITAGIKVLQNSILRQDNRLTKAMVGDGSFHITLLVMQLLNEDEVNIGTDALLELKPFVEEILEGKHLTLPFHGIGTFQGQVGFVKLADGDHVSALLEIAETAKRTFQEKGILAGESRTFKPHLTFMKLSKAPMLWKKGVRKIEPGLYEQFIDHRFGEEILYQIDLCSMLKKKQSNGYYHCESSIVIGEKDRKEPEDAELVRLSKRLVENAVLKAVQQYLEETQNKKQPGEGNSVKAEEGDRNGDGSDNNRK

Row | EC50 [1, 5] [µM] | SMILES | Viability (100 μM) 24 hours [2] | further results
1 | 2.9 | CCN(CC)c1ccc(CN(Cc2ccccc2)Cc2ccc(N(CC)CC)cc2)cc1 |  | 
2 | 25.6 | COc1ccc(CN(Cc2ccc(F)cc2)Cc2nc(C(=O)O)cs2)cc1 |  | 
3 | 3.6 | O=C(Nc1ccccc1)Nc1ccc(CN(Cc2ccccc2)Cc2ccc(NC(=O)Nc3ccccc3)cc2)cc1 |  | 
4 | 2 | CN(C)c1ccc(CN(Cc2ccccc2)Cc2ccc(N(C)C)cc2)cc1 [drawing 177] |  | 
5 | 9.3 | O=C(Nc1ccc(F)cc1)Nc1ccc(CN(Cc2ccccc2)Cc2ccc(NC(=O)Nc3ccc(F)cc3)cc2)cc1 |  | 
6 | 3.8 | Nc1ccc(CN(Cc2ccccc2)Cc2ccc(N)cc2)cc1 |  | 
7 | 29.6 | O=C(O)c1ccc(CN(Cc2ccccc2)Cc2ccc(C(=O)O)cc2)cc1 |  | 
8 | 137 | Cc1ccc(CN(Cc2ccc(F)cc2)Cc2nc(C(=O)O)cs2)cc1 |  | 
9 | 41.6 | CC(C)(C)c1ccc(CN(Cc2ccc(F)cc2)Cc2nc(C(=O)O)cs2)cc1 |  | 
10 | 22.2 | Nc1ccc(CN(Cc2ccc(N)cc2)Cc2ccc(N)cc2)cc1 |  | 
11 | 39.5 | O=C(O)c1csc(CN(Cc2ccc(F)cc2)Cc2ccc(OCc3ccccc3)cc2)n1 |  | 
12 | 2.5 | Cc1ccc(NC(=O)Nc2ccc(CN(Cc3ccccc3)Cc3ccc(NC(=O)Nc4ccc(C)cc4)cc3)cc2)cc1 |  | 

Further lines, the molecule ahead of its results:

Row | SMILES | EC50 [1, 5] [µM] | Viability (100 μM) 24 hours [2] | further results
13 | Cc1ccc(CN(Cc2cccc(C(F)(F)F)c2)Cc2nc(C(=O)O)cs2)cc1 | 98.3 |  | 
14 | CN(C)c1ccc(CN(Cc2ccccc2)CC(c2ccccc2)c2ccccc2)cc1 [Example 3c] |  | 0.74 | EC50 [1, 6]: 0.44 ± 0.18 µM; EC50 ([1]; read-out: EC50): 0.327 µM; Effect on PLB phosphorylation in cardiomyocytes [3]: +; effect on PLB phosphorylation in cardiomyocytes [3]: somewhat weaker than that of 2g
15 | CN(C)c1ccc(CN(Cc2ccccc2)Cc2ccc(N(C)C)cc2)cc1 [Example 2g] |  | 0.56 | SERCA2 activity (SERCA2): increased SERCA2 activity; EC50 [1, 7]: 1.7 ± 0.91 µM; Effect on PLB phosphorylation in cardiomyocytes [3]: ++; effect on PLB phosphorylation in cardiomyocytes [3]: concentration dependent inhibition of PLB-phosphorylation
16 | O=C(O)c1csc(CN(CCC(c2ccccc2)c2ccccc2)Cc2ccccc2F)n1 | 10.6 |  | 
17 | CC(C)(C)c1ccc(CN(CCC(c2ccccc2)c2ccccc2)Cc2nc(C(=O)O)cs2)cc1 | 21.1 |  | 
18 | COC(=O)c1ccc(CN(Cc2ccccc2)Cc2ccc(C(=O)OC)cc2)cc1 [Example 2f] |  | 0.92 | 
19 | CN(C)c1ccc(CN(Cc2ccccc2)Cc2ccc3c(c2)CCO3)cc1 [Example 3d] |  | 0.58 | EC50 [1, 6]: 2.45 ± 0.73 µM; EC50 ([1]; read-out: EC50): 2.79 µM; effect on PLB phosphorylation in cardiomyocytes [3]: did not appear to have an effect
20 | O=C(O)c1csc(CN(Cc2ccc(F)cc2)Cc2cccc(C(F)(F)F)c2)n1 | 60.5 |  | 
21 | CC(C)(C)c1ccc(CN(Cc2ccncc2)Cc2ccc(F)cc2)cc1 [Example 3a] |  | 0.79 | 
22 | Oc1ccc(O)c(CN(Cc2ccncc2)Cc2cc(O)ccc2O)c1 [Example 2b] |  | 0.10 | EC50 [1, 7]: 12.3 ± 3.08 µM; Effect on PLB phosphorylation in cardiomyocytes [3]: −
23 | Cc1ccc(CN(CCC(c2ccccc2)c2ccccc2)Cc2nc(C(=O)O)cs2)cc1 | 35.4 |  | 
24 | O=C(O)c1csc(CN(Cc2ccc(F)cc2)Cc2ccc(Cl)cc2)n1 | 94.3 |  | 
25 | O=C(O)c1csc(CN(Cc2ccc(F)cc2)Cc2cccc(Cl)c2)n1 | 36.4 |  | 
26 | c1ccc(CN(Cc2ccccc2)Cc2ccccc2)cc1 [tribenzylamine, Tribenzylamine] |  |  | AUC Free base [4]: ≈0 mAu*s
27 | O=C(O)c1csc(CN(Cc2cccc(C(F)(F)F)c2)Cc2ccccc2F)n1 | 216 |  | 
28 | O=C(O)c1csc(CN(CCC(c2ccccc2)c2ccccc2)Cc2ccc(F)cc2)n1 | 18 |  | 
29 | CC(c1ccccc1)N(Cc1ccc(N(C)C)cc1)Cc1ccc(N(C)C)cc1 (stereo not shown) [Example 2h] |  | 0.91 | 
30 | O=[N+]([O-])c1ccc(CN(Cc2ccccc2)Cc2ccc([N+](=O)[O-])cc2)cc1 | 7.5 |  | 
31 | Oc1ccc(O)c(CN(Cc2ccncc2)Cc2ccc(F)cc2)c1 [Example 3b] |  | 0.03 | EC50 [1]: approximately the same as for 2b; EC50 [1, 6]: 5.43 ± 1.11 µM
32 | O=C(O)c1ccc(CN(Cc2ccccc2)Cc2ccc(F)cc2)cc1 [Example 3f] |  | 0.98 | Effect on PLB phosphorylation in cardiomyocytes [3]: +; effect on PLB phosphorylation in cardiomyocytes [3]: did not appear to have an effect
33 | Fc1ccc(CN(Cc2ccncc2)Cc2ccc(F)cc2)cc1 [Example 2a] |  | 0.85 | 
34 | COC(=O)c1ccc(CN(Cc2ccccc2)Cc2ccc(F)cc2)cc1 [Example 3e] |  | 0.57 | 
35 | Cc1ccc(NC(=O)Nc2ccc(CN(Cc3ccc(NC(=O)Nc4ccccc4)cc3)Cc3ccc(NC(=O)Nc4ccc(C)cc4)cc3)cc2)cc1 | 5.2 |  | 
36 | Fc1ccc(CN(Cc2ccccc2)Cc2ccc(-c3ccccc3-c3nn[nH]n3)cc2)cc1 [Example 3g] |  | 0.80 | EC50 [1, 6]: 47.1 µM; EC50 ([1]; read-out: EC50): 47.1 µM
